Laboratory results: a melting point compilation (Tetko et al.; mined from patent text by program, amines drawn as free bases though some values may be those of a salt)

Structure (SMILES) | melting point
Nc1cccc2c1CN(c1c(F)cc3c(=O)c(C(=O)O)cn(-c4ccc(F)cc4)c3c1F)C2 | 269 to 274 °C
Cc1noc(NC(=O)CCl)c1C | 97 to 100 °C
CCOC(=O)c1c(-c2ccccc2Cl)c2cc(CC)ccc2n(C)c1=O | 125 to 126 °C
O=S(=O)(c1ccc(Cl)cc1)N1CCCC1c1ccccc1 (racemic) | 119 °C
COC(=O)c1cn2c(C)c(C)sc2n1 | 180 to 181 °C
N#CCNC(=O)C(Cl)c1ccccc1 (configuration not stated) | 73 to 74 °C
CC(Oc1ccc(-c2cccc(S(=O)(=O)NCC(F)(F)F)c2)cc1)C(O)CCc1cccnc1 (configuration not stated) | 47 to 48 °C
COc1ccccc1N(CCN1CCC(C(=O)c2ccc(F)cc2)CC1)S(=O)(=O)C1=CCC(=NO)C=C1 | 162 to 168 °C
COc1ccc(C(=O)Nc2ccc3ccc(Cl)nc3n2)cn1 | 270 °C
CC(CC(=O)c1ccccc1)C(=O)N[C@@H](CS)C(=O)O (some centres not stated) | 78 to 105 °C
CCOC(=O)C1=C(C)NC(C)=C(C(=O)OCC)C1c1ccccc1/C=C/C(=O)OC(C)(C)C | 143 to 145 °C
CC1CCN(C2(c3ccc(C#CC(=O)Nc4ccc(-c5ccc(Cl)cc5)cc4)cc3)CC2)CC1 | 128 to 129 °C
CCOC(=O)CCCCCOc1ccc(Nc2ccncc2)cc1 | 104 to 106 °C
CC1CC(=O)NN=C1c1ccc(N2CCNCC2)c(N)c1 (configuration not stated) | 244 to 245 °C
CCCCc1nc2cccc(C(=O)O)c2n1Cc1ccc(-c2ccccc2-c2nc(=S)o[nH]2)cc1 | 178 to 180 °C
O=C(O)c1cc(OCCCc2ccccc2)cc(OCCCc2ccccc2)c1 | 107 to 109 °C
COC1(c2cc(F)cc(Sc3ccc(CONC(N)=O)cc3)c2)CCOCC1 | 104 to 105 °C
OCC1OC(n2cnc3c(NC4CCN(Cc5ccccc5)CC4)ncnc32)C(O)C1O (configuration not stated) | 176 to 182 °C
Cc1cccc(C)c1N(Cn1cncn1)C(=O)CCl | 115 to 118 °C
C[C@H](C(=O)O)n1ncn(-c2ccc(OCC(F)(F)C(F)F)cc2)c1=O | 162 to 165 °C
O=c1oc2ccc(Cc3ccccc3)cc2c(O)c1CCCOc1ccccc1 | 149 to 150 °C
CCOC(=O)c1nc(C=Cc2cccc(Cl)c2)oc1C | 116 to 117 °C
c1ccc(COc2ccc(N3c4ccccc4Sc4ccccc43)cc2)cc1 | 144 to 146 °C
CC[C@H]1CN(c2c(F)cc3c(=O)c(C(=O)O)cn4c3c2OC[C@@H]4C)C[C@H]1NC | 211 to 213 °C

Structure (SMILES) | melting point
Cc1c(-c2ccccc2)oc2c(CNCCO)cccc2c1=O | 117 °C
O=C(O)c1ccc2c(c1)S(=O)(=O)c1ccccc1C2=O | 285 to 287 °C
NC(=S)c1c(F)c(F)c(F)c(F)c1F | 92 to 93 °C
COc1ccc2ncccc2c1N | 152 to 154 °C
N#Cc1ccccc1NC(=O)C1CCCCC1 | 135 to 137 °C
NC(=O)CC(CC(N)=O)c1cccc(Cl)c1Cl | 194 to 196 °C
CCCCCc1cc(O)c2c3c(c(=O)oc2c1)SC(C)(C)C3 | 203 to 206 °C
CCCCCCCCCCCCCCCCCCOc1cn(-c2ccccc2)c(CO)cc1=O | 67 to 72 °C
CC12C=CC(=O)C=C1C(Br)CC1C2CCC2(C)C(=O)CCC12 (configuration not stated) | 188 to 190 °C
CCOC(=O)C(C)=NNc1ccc(Cl)c(F)c1 | 161 to 163 °C
CCNc1ncn(Cc2ccc(OC)c(OC3CCCC3)c2)c2nc(C(C)C)nc1-2 | 205 to 207 °C
O=C(O)C(Cc1ccccc1)Oc1ccc(-c2ccc(-c3c(Cc4ccc(O)c(O)c4)sc4ccccc34)cc2)cc1 (configuration not stated) | 108 to 110 °C
CCOC(=O)C1SCCN1C(=S)Nc1cc(Cl)cc(Cl)c1 (configuration not stated) | 170 to 172 °C
COc1ccc(Cn2c(=O)[nH]c(=O)c3c2nc(C(C)(C)C)n3Cc2ccccc2)cc1 | 170 to 172 °C
COc1cc(-c2ncn(CCO)c2-c2ccc(C(F)(F)F)cc2)cc(OC)c1OC | 208 to 210 °C
COc1ccc(N2C(=O)C(N=[N+]=[N-])C2c2ccc(C(=O)O)cc2)cc1 (configuration not stated) | 190 °C
N#CC1=C(c2cccs2)Nc2n[nH]cc2C1c1cccc2ccccc12 (configuration not stated) | 214 °C
CCCCS(=O)(=O)NCCc1nc(-c2ccc(-c3ccccc3)cc2)c[nH]1 | 168 °C
CCCN(C1CCN(C)CC1)S(=O)(=O)c1ccc(Nc2nccc(Nc3ccc(F)cc3)n2)cc1 | 232 °C
CC(C)(C)c1cc(NC=O)n[nH]1 | 204 to 206 °C
CNC(=O)N1C(=O)CC(c2ccc(OC)c(OC3CCCC3)c2)N1C (configuration not stated) | 65 to 68 °C
CN1CCN(c2ccc(C(=O)NCCCCCCCCCO[N+](=O)[O-])cn2)CC1 | 90 to 92 °C
O=C(Nc1cccc(-c2c(-c3ccccc3)cnc3c(C(F)(F)F)cccc23)c1)Nc1ccccc1Cl | 192 to 195 °C
OCc1cccc(/C=C/c2nc3cc(F)ccc3s2)n1 | 179 to 181 °C

Structure (SMILES) | melting point
Nc1ccc(C2CCOCC2)cc1 | 122 °C
CON(C(=O)c1cn(C)nc1C(F)(F)F)C(CF)Cc1c(Cl)cc(Cl)cc1Cl (configuration not stated) | 131 to 133 °C
CC(C)(C)OC(=O)NC1CCc2cc3ccccc3n2C1 (configuration not stated) | 137 to 139 °C
COc1cc(C)c(CNCCc2ccc(O)cc2)cc1O | 122 to 124 °C
O=c1[nH]c2cc3[nH]c(-c4ccnnc4)nc3cc2o1 | 330 °C
O=C(O)c1cc(Br)cc([N+](=O)[O-])c1Br | 225 to 229 °C
O=C(N[C@H]1CC[C@H](CCN2CCN(c3nccc4c3OCC4)CC2)CC1)C1(O)CCC1 | 250 °C
COC(=O)c1cc(NC(=O)OC(C)(C)C)c(NC(=O)CC(=O)c2cccc(C#N)c2)cc1I | 162 to 166 °C
CN(C)C(=O)Nc1ccc(O)cc1 | 178 to 179 °C
CCOC(=O)OC12Oc3cc(C(C)C)ccc3C1(O)C(=O)c1ccccc12 (configuration not stated) | 144 to 147 °C
CCCC(C)(c1ccc(Oc2ccc([N+](=O)[O-])cc2)cc1)c1ccc(Oc2ccc([N+](=O)[O-])cc2)cc1 | 151 to 152 °C
CSc1ccc(C(=N)Nc2ccc(C)cc2)cc1 | 143 to 145 °C
CCOC(=O)c1cc2c([nH]1)CCCC2 | 70 to 72 °C
O=C1NC(=O)C(=Cc2cccs2)N1 | 253 to 255 °C
COc1ccc(-n2cnc3ccc(-c4nnc(SCc5cccc(C#N)c5)o4)cc32)cc1 | 157 to 158 °C
O=C(NC1CCC2(CC1)CSC1=C(O2)c2ccccc2C(=O)C1=O)Oc1cccc(C(F)(F)F)c1 (configuration not stated) | 198 to 199 °C
CC(C)(C)OC(=O)NCCc1c[nH]c2ccc(C#N)cc12 | 129 to 132 °C
CCCCCc1cn(CCCC)c(=O)n1Cc1ccc(-c2ccccc2-c2nnn[nH]2)nc1 | 176 to 177 °C
CC(C)c1nc(CO)n(Cc2ccc(=O)[nH]c2)c1Sc1cc(Cl)cc(Cl)c1 | 220 °C
O=c1c2c(CCc3ccncc3)n[nH]c2c2cccnc2n1-c1cccc([N+](=O)[O-])c1 | 161 to 165 °C
CC(C)c1nc(C(C)C)c(CNC2CCCCC2)c(-c2ccc(F)cc2)c1CO | 131 to 133 °C
CCCCCS(=O)(=O)NC(=O)/C=C/c1ccc(OCCOC)cc1Oc1ncc(NC(=O)OC(C)(C)C)cc1C | 150 °C
NCc1[nH]c2ccc(Cl)cc2c1-c1c(F)cccc1F | 199 to 200 °C
CCOc1ccccc1-c1cc(NC(=O)C2CCN(CC)CC2)ncn1 | 65 to 67 °C
